This note sets out measurements from ChEMBL document CHEMBL5729469, “Compounds for treating ILK-mediated diseases” (2022).

Each structure is given as a SMILES string.

This experiment has as its target Epidermal growth factor receptor (Homo sapiens, UniProt P00533). Kind of experiment: Biochemical Assay: Thus, while these compounds were extensively used in studying ILK-mediated cellular and disease processes, their reported inhibitory effects are probably due to unknown artifacts or indirect binding events. Next, we turned our attention to previously reported studies on kinase profiling and quantitative chemical proteomics. These studies suggested that a widely known lung ….

Sequence of Epidermal growth factor receptor (P00533 whole entry): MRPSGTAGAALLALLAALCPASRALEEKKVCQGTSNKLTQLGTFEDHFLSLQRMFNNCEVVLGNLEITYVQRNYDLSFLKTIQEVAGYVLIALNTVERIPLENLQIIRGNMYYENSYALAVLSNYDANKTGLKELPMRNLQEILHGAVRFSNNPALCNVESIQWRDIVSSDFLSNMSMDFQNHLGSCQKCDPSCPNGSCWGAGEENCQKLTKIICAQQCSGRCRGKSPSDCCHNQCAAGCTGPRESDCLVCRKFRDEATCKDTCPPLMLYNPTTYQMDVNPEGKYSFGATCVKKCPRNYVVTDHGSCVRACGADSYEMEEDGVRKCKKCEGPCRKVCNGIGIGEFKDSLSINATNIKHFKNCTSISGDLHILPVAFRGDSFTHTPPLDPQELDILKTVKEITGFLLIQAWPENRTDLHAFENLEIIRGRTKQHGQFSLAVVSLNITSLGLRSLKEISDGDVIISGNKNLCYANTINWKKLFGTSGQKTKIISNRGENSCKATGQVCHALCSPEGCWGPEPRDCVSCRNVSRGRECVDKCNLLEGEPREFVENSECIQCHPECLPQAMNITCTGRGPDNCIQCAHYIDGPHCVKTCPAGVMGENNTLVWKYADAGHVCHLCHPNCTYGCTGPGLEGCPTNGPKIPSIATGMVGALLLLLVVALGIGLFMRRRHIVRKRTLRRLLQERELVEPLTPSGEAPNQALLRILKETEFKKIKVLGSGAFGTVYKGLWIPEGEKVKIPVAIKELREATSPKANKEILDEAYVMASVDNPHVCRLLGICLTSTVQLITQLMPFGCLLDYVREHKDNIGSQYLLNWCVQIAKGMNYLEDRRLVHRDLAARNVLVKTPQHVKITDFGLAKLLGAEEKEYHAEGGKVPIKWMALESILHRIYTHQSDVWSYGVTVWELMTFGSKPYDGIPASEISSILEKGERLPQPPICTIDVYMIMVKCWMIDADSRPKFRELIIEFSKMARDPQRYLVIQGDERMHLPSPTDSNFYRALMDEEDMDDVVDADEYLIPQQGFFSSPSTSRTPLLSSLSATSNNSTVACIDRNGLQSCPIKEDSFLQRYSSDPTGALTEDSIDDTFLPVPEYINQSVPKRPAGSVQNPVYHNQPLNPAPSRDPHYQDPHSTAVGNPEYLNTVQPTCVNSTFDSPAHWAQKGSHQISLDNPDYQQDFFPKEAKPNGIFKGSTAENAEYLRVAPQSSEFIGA

`C#Cc1cc(Nc2ncnc3cc(OCCOC)ccc23)cc(OCCOCC)c1` had a Kd of 17.7 µM.

The compound `C#Cc1cc(C#C)cc(Nc2ncnc3cc(OC)c(OC)cc23)c1` gave a Kd of 1.15 µM.

In turn, `C#Cc1cc(Nc2ncnc3cc(OCCOC)c(OCCOC)cc23)ccc1C` registered a Kd of 0.745 µM.
